The structures appear in SMILES notation.

One data set deals with T1, Δ1-28 Kv3.4 channels (Homo sapiens, UniProt Q03721).
T1 construct: expressed in transfected cells; host or cells: Xenopus oocytes (cRNA injection)
T1 sequence (Q03721 29-635): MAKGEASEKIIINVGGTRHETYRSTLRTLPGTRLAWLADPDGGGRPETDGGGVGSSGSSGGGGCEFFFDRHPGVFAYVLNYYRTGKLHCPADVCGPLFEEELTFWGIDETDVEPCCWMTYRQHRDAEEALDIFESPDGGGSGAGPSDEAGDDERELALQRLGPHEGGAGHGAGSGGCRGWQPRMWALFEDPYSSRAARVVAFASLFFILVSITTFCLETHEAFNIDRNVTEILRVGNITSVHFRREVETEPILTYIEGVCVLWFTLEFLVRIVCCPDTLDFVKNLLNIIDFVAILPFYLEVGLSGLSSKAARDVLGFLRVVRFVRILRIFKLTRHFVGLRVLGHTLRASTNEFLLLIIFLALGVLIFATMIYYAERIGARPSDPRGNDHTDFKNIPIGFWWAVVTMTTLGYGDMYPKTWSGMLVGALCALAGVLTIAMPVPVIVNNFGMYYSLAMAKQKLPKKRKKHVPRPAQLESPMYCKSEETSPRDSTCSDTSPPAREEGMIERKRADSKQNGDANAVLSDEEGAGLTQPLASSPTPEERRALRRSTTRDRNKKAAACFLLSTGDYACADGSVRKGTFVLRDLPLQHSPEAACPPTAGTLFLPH
Briefly: TEVC current-voltage relationship of Δ1-28 Kv3.4 in Xenopus oocytes. Format: cell-based. The settings on record: 1 mM. The protocol: FIG. 6. Opening and block of Kv3.4 by two didabco compounds show voltage-dependency. Normalized I/V relationship for Δ1-28 Kv3.4 currents in oocytes in the absence (control) or presence as indicated of 1 mM JC279.3a or JC638.2a. Peak currents during 2 s pulses to voltages between −80 and +60 mV (protocol upper left insert) were recorded, before and after drug was washed in during successive 0.1 Hz, 2 s pulses from −80 to 0 mV until equilibrium block or opening was observed. Points are means from n=3-16 oocytes; error bars indicate SEM.
(§1) Whole-cell two-electrode voltage-clamp (TEVC) recordings were performed on X laevis oocytes expressing cloned Kv2.1, Kv3.4 or Kv4.2 using a Warner OC-725C amplifier and pClamp9 (Axon Instruments, Foster City, Calif.) software. Oocytes were bathed in a small-volume Warner oocyte bath and viewed with a Fisher dissection microscope. Bath solution for whole-cell oocyte recordings was (in mM): 96 NaCl, 4 KCl, 0.7 MgCl2, 1 CaCl2, 10 HEPES (pH 7.4); whole-cell oocyte TEVC pipettes were of 0.2-2 M resistance when filled with 3 M KCl. Experiments were performed 24-48 hours after cRNA injection. For assessment of current-voltage relationships in the absence or presence of dabco derivatives, oocytes were held at −80 mV, stepped for 2 seconds at voltages between −80 mV and +60 mV in 20 mV steps (Kv2.1) or between −80 and +50 mV in 10 mV steps (Kv3.4), then held for 500 ms at −40 mV before returning to the holding potential. For assessment of block during wash-in of dabco derivatives at a single voltage, oocytes were held at −80 mV, and repetitively stepped to 0 mV for 2 s with an interpulse interval of 10 s or 60 s as indicated. A range of concentrations of dabco or dabco derivatives were washed in via the bath solution during repetitive single-voltage pulses (after an initial period of 5 pulses with control solution to ensure current stabilization) until equilibrium block was achieved, to establish dose-responses. Inhibited currents are compared to the current at the end of 5-pulse control period, thus some bar graphs show ‘control’ current values slightly less than 1, and with an error bar, to show how much currents deviate in the absence of drug. Washout was performed after the highest concentration of blocker was washed in. […]
To investigate the mechanism of Kv channel block or opening by didabco compounds, the current-voltage relationship (I/V curve) of Δ1-28 Kv3.4 channels expressed in Xenopus oocytes was assessed using TEVC recording in the absence and presence of a didabco opener (JC279.3a, the 10 CH2-group didabco from FIG. 3) or a didabco blocker (JC638.2a, the para didabco from FIG. 4).

In another data set the test system is oocytes. The data set can be described thus: Toxicity / nonspecific leak in oocytes during dose-response recording. The data set is classed as cell-based, Xenopus laevis. The protocol: as §1, with “indicated.” for “indicated. A range of concentrations of dabco or dabco derivatives were washed in via the bath solution during repetitive single-voltage pulses (after an initial period of 5 pulses with control solution to ensure current stabilization) until equilibrium block was achieved, to establish dose-responses. Inhibited currents are compared to the current at the end of 5-pulse control period, thus some bar graphs show ‘control’ current values slightly less than 1, and with an error bar, to show how much currents deviate in the absence of drug. Washout was performed after the highest concentration of blocker was washed in.”

As for `c1cc(C[N+]23CCN(CC2)CC3)ccc1C[N+]12CCN(CC1)CC2` [JC638.2α, α,α′-[bis(4-aza-1-azoniabicyclo[2.2.2]octanyl)]p-xylene], the “block or opening of Δ1-28 Kv3.4” value on Δ1-28 Kv3.4 channels is recorded as “blocker”. Further, the “voltage dependence of block or opening of Kv3.4” value at Δ1-28 Kv3.4 channels (attenuated at more depolarized voltages) is listed as “voltage-dependent”.

Consider `C(CC[N+]12CCN(CC1)CC2)C[N+]12CCN(CC1)CC2` [TG26], for which the toxicity to oocytes entry in the data set with oocytes (doses required to produce >50% block) is “toxic to the oocytes”.

With `C(CCCC[N+]12CCN(CC1)CC2)CCC[N+]12CCN(CC1)CC2` [TG27, 1,8-[bis(4-aza-1-azoniabicyclo[2.2.2]octanyl)]octane], the “concentration at which nonspecific leak began” value in the data set on oocytes (Kv3.4 dose response) is on record as “above 1 mM”.
